Results published in ChEMBL document CHEMBL3763031, “Design, synthesis and biological evaluation of monobactams as antibacterial agents against gram-negative bacteria” (2016).
Values after ≈ are worked out from the molar mass of the structure shown.

What was measured:
Escherichia coli [1] = experiment: Antibacterial activity against Escherichia coli BL21 by microbroth dilution assay; assay type: functional
Escherichia coli [2] = experiment: Antibacterial activity against acrAB and acrEF knock-out Escherichia coli BL21 by microbroth dilution assay; assay type: functional
Serratia marcescens = experiment: Antibacterial activity against beta-lactamase producing Serratia marcescens 41002 after 18 hrs by agar dilution assay; assay type: functional; conditions: Serratia marcescens, 41002, 18 h
Pseudomonas aeruginosa [3] = experiment: Antimicrobial activity against Pseudomonas aeruginosa 27853 after 18 hrs by microdilution method in presence of 0.4 uM iron; assay type: functional
Pseudomonas aeruginosa [4] = experiment: Antibacterial activity against BL positive Pseudomonas aeruginosa PAO1 after 18 hrs by agar dilution assay; assay type: functional; conditions: PAO1, 18 h
Pseudomonas aeruginosa [5] = experiment: Antibacterial activity against BL positive Pseudomonas aeruginosa 27853 after 18 hrs by agar dilution assay; assay type: functional; conditions: Pseudomonas aeruginosa, 27853, 18 h
Pseudomonas aeruginosa [6] = experiment: Antimicrobial activity against Pseudomonas aeruginosa PAO1 after 18 hrs by microdilution method in presence of 4 uM iron; assay type: functional
Escherichia coli [7] = experiment: Antibacterial activity against ESBL negative Escherichia coli 1515 after 18 hrs by agar dilution assay; assay type: functional; conditions: Escherichia coli, 1515, 18 h
Klebsiella pneumoniae [8] = experiment: Antibacterial activity against ESBL negative Klebsiella pneumoniae 09-8 after 18 hrs by agar dilution assay; assay type: functional; conditions: 09-8, 18 h
Providencia rettgeri = experiment: Antibacterial activity against Providencia rettgeri 31052 after 18 hrs by agar dilution assay; assay type: functional; conditions: Providencia rettgeri, 31052, 18 h
Pseudomonas aeruginosa [9] = experiment: Antibacterial activity against BL positive Pseudomonas aeruginosa 09-14 after 18 hrs by agar dilution assay; assay type: functional; conditions: 09-14, 18 h
Pseudomonas aeruginosa [10] = experiment: Antimicrobial activity against Pseudomonas aeruginosa PAO1 after 18 hrs by microdilution method in presence of 0.4 uM iron; assay type: functional
Klebsiella pneumoniae [11] = experiment: Antibacterial activity against ESBL negative Klebsiella pneumoniae 7 after 18 hrs by agar dilution assay; assay type: functional; conditions: Klebsiella pneumoniae, 7, 18 h
Proteus mirabilis = experiment: Antibacterial activity against beta-lactamase producing Proteus mirabilis 09-1 after 18 hrs by agar dilution assay; assay type: functional; conditions: 09-1, 18 h
Salmonella typhi = experiment: Antibacterial activity against beta-lactamase producing Salmonella typhi H901 after 18 hrs by agar dilution assay; assay type: functional, Salmonella enterica subsp. enterica serovar Typhi; conditions: Salmonella enterica, H901, 18 h
Citrobacter freundii = experiment: Antibacterial activity against beta-lactamase producing Citrobacter freundii 43864 after 18 hrs by agar dilution assay; assay type: functional; conditions: Citrobacter freundii, 43864, 18 h
Klebsiella aerogenes = experiment: Antibacterial activity against beta-lactamase producing Enterobacter aerogenes 45102 after 18 hrs by agar dilution assay; assay type: functional; conditions: Klebsiella aerogenes, 45102, 18 h
Pseudomonas aeruginosa [12] = experiment: Antimicrobial activity against Pseudomonas aeruginosa 27853 after 18 hrs by microdilution method in presence of 40 uM iron; assay type: functional
Klebsiella pneumoniae [13] = experiment: Antibacterial activity against ESBL positive Klebsiella pneumoniae 700603 after 18 hrs by agar dilution assay; assay type: functional; conditions: Klebsiella pneumoniae, 700603, 18 h
Escherichia coli [14] = experiment: Antibacterial activity against ESBL positive Escherichia coli 09-1 after 18 hrs by agar dilution assay; assay type: functional; conditions: 09-1, 18 h
Escherichia coli [15] = experiment: Selectivity ratio of MIC for Escherichia coli BL21 to MIC for acrAB and acrEF knock-out Escherichia coli BL21; assay type: functional
Pseudomonas aeruginosa [16] = experiment: Antimicrobial activity against Pseudomonas aeruginosa 27853 after 18 hrs by microdilution method in presence of 4 uM iron; assay type: functional
Proteus vulgaris = experiment: Antibacterial activity against beta-lactamase producing Proteus vulgaris 29905 after 18 hrs by agar dilution assay; assay type: functional; conditions: Proteus vulgaris, 29905, 18 h
Enterobacter cloacae = experiment: Antibacterial activity against beta-lactamase producing Enterobacter cloacae 45301 after 18 hrs by agar dilution assay; assay type: functional; conditions: Enterobacter cloacae, 45301, 18 h
Pseudomonas aeruginosa [17] = experiment: microbe, parasite or virus in culture; conditions: Pseudomonas aeruginosa, 27853, 18 h
Description: Antimicrobial activity against Pseudomonas aeruginosa 27853 after 18 hrs by microdilution method in absence of iron

Klebsiella pneumoniae [18] = experiment: Antibacterial activity against ESBL positive Klebsiella pneumoniae 09-25 after 18 hrs by agar dilution assay; assay type: functional; conditions: 09-25, 18 h
Pseudomonas aeruginosa [19] = experiment: Antimicrobial activity against Pseudomonas aeruginosa PAO1 after 18 hrs by microdilution method in absence of iron; conditions: PAO1, 18 h
Klebsiella pneumoniae [20] = experiment: Antibacterial activity against NDM-1 positive Klebsiella pneumoniae BAA-2146 after 18 hrs by agar dilution assay; assay type: functional; conditions: BAA-2146, 18 h
Morganella morganii = experiment: Antibacterial activity against beta-lactamase producing Morganella morganii 25830 after 18 hrs by agar dilution assay; assay type: functional; conditions: Morganella morganii, 25830, 18 h
Pseudomonas aeruginosa [21] = experiment: Antimicrobial activity against Pseudomonas aeruginosa PAO1 after 18 hrs by microdilution method in presence of 40 uM iron; assay type: functional
Escherichia coli [22] = experiment: Antibacterial activity against ESBL negative Escherichia coli 09-20 after 18 hrs by agar dilution assay; assay type: functional; conditions: 09-20, 18 h
Escherichia coli [23] = experiment: Antibacterial activity against ESBL negative Escherichia coli 25922 after 18 hrs by agar dilution assay; assay type: functional; conditions: Escherichia coli, 25922, 18 h
[24] = Pseudomonas aeruginosa, 27853, 18 h

Compound	MIC (Serratia marcescens) [µg/mL]	MIC (Pseudomonas aeruginosa [4]) [µg/mL]	MIC (Pseudomonas aeruginosa [5]) [µg/mL]	MIC (Escherichia coli [7]) [µg/mL]	MIC (Klebsiella pneumoniae [8]) [µg/mL]	MIC (Providencia rettgeri) [µg/mL]	MIC (Pseudomonas aeruginosa [9]) [µg/mL]	MIC (Klebsiella pneumoniae [11]) [µg/mL]	MIC (Proteus mirabilis) [µg/mL]	MIC (Salmonella typhi) [µg/mL]	MIC (Citrobacter freundii) [µg/mL]	MIC (Klebsiella aerogenes) [µg/mL]	MIC (Klebsiella pneumoniae [13]) [µg/mL]	MIC (Escherichia coli [14]) [µg/mL]	MIC (Proteus vulgaris) [µg/mL]	MIC (Enterobacter cloacae) [µg/mL]	MIC (Klebsiella pneumoniae [18]) [µg/mL]	MIC (Klebsiella pneumoniae [20]) [µg/mL]	MIC (Morganella morganii) [µg/mL]	MIC (Escherichia coli [22]) [µg/mL]	further results
CN(C)[C@@H]1C(O)=C(C(N)=O)C(=O)[C@@]2(O)C(O)=C3C(=O)c4c(O)cccc4[C@@](C)(O)[C@H]3C[C@@H]12 [TETRACYCLINE]	–	–	–	–	–	–	–	–	–	–	–	–	–	–	–	–	–	–	–	–	MIC (Escherichia coli [1]): 0.5 µg/mL (≈ 1.13 µM); MIC (Escherichia coli [2]): 0.25 µg/mL (≈ 0.563 µM)
CC1(C)[C@H](NC(=O)/C(=N\OCc2cccnc2)c2csc(N)n2)C(=O)N1S(=O)(=O)O	8 (≈ 17.6 µM)	128 (≈ 282 µM)	> 128	16 (≈ 35.2 µM)	8 (≈ 17.6 µM)	0.03 (≈ 0.066 µM)	> 128	4 (≈ 8.8 µM)	32 (≈ 70.4 µM)	32 (≈ 70.4 µM)	4 (≈ 8.8 µM)	8 (≈ 17.6 µM)	64 (≈ 141 µM)	4 (≈ 8.8 µM)	0.25 (≈ 0.55 µM)	4 (≈ 8.8 µM)	8 (≈ 17.6 µM)	32 (≈ 70.4 µM)	0.5 (≈ 1.1 µM)	4 (≈ 8.8 µM)	MIC (Pseudomonas aeruginosa [3]; [24]): > 128 µg/mL; MIC (Escherichia coli [1]): 32 µg/mL (≈ 70.4 µM); MIC (Pseudomonas aeruginosa [6]; PAO1, 18 h): > 128 µg/mL; MIC (Pseudomonas aeruginosa [10]; PAO1, 18 h): > 128 µg/mL; MIC (Pseudomonas aeruginosa [12]; [24]): > 128 µg/mL; Selectivity ratio (Escherichia coli [15]): >16; MIC (Pseudomonas aeruginosa [16]; [24]): > 128 µg/mL; MIC (Pseudomonas aeruginosa [17]): > 128 µg/mL; MIC (Escherichia coli [2]): 0.5 µg/mL (≈ 1.1 µM); MIC (Pseudomonas aeruginosa [19]): > 128 µg/mL; MIC (Pseudomonas aeruginosa [21]; PAO1, 18 h): > 128 µg/mL; MIC (Escherichia coli [23]): 8 µg/mL (≈ 17.6 µM)
GENTAMICIN	–	–	–	–	–	–	–	–	–	–	–	–	–	–	–	–	–	–	–	–	MIC (Pseudomonas aeruginosa [3]): 1 µg/mL; MIC (Pseudomonas aeruginosa [6]): 1 µg/mL; MIC (Pseudomonas aeruginosa [10]): 128 µg/mL; MIC (Pseudomonas aeruginosa [12]): 128 µg/mL; MIC (Pseudomonas aeruginosa [16]): 1 µg/mL; MIC (Pseudomonas aeruginosa [21]): 128 µg/mL
CCN(CC)CC.C[C@H]1[C@H](NC(=O)/C(=N\OCc2ccc(C(=O)N/N=C/c3ccc(O)cc3O)cc2)c2csc(N)n2)C(=O)N1S(=O)(=O)O (relative stereo)	4	16	16	0.25	32	≤ 0.03	16	2	1	8	8	4	64	64	0.5	4	> 64	> 64	0.12	64	Selectivity ratio (Escherichia coli [15]): >16; MIC (Escherichia coli [23]): 8 µg/mL
CC1(C)[C@H](NC(=O)/C(=N\OCc2ccccn2)c2csc(N)n2)C(=O)N1S(=O)(=O)O	8 (≈ 17.6 µM)	32 (≈ 70.4 µM)	64 (≈ 141 µM)	2 (≈ 4.4 µM)	4 (≈ 8.8 µM)	0.06 (≈ 0.132 µM)	64 (≈ 141 µM)	4 (≈ 8.8 µM)	2 (≈ 4.4 µM)	32 (≈ 70.4 µM)	2 (≈ 4.4 µM)	8 (≈ 17.6 µM)	> 128	4 (≈ 8.8 µM)	0.125 (≈ 0.275 µM)	1 (≈ 2.2 µM)	32 (≈ 70.4 µM)	16 (≈ 35.2 µM)	0.5 (≈ 1.1 µM)	4 (≈ 8.8 µM)	MIC (Pseudomonas aeruginosa [3]; [24]): 128 µg/mL; MIC (Escherichia coli [1]): 2 µg/mL (≈ 4.4 µM); MIC (Pseudomonas aeruginosa [6]; PAO1, 18 h): 128 µg/mL; MIC (Pseudomonas aeruginosa [10]; PAO1, 18 h): 64 µg/mL; MIC (Pseudomonas aeruginosa [12]; [24]): 128 µg/mL; Selectivity ratio (Escherichia coli [15]): >16; MIC (Pseudomonas aeruginosa [16]; [24]): 128 µg/mL; MIC (Pseudomonas aeruginosa [17]): 128 µg/mL (≈ 282 µM); MIC (Escherichia coli [2]): ≤ 0.06 µg/mL; MIC (Pseudomonas aeruginosa [19]): 64 µg/mL (≈ 141 µM); MIC (Pseudomonas aeruginosa [21]; PAO1, 18 h): 64 µg/mL; MIC (Escherichia coli [23]): 2 µg/mL (≈ 4.4 µM)
CCN(CC)CC.C[C@H]1[C@H](NC(=O)/C(=N\OCc2ccc(C(=O)N/N=C/c3ncc[nH]3)cc2)c2csc(N)n2)C(=O)N1S(=O)(=O)O	4	32	32	8	8	0.06	32	8	2	1	2	2	64	64	0.125	1	> 64	> 64	0.25	64	MIC (Escherichia coli [1]): 1 µg/mL; MIC (Escherichia coli [2]): ≤ 0.06 µg/mL; MIC (Escherichia coli [23]): 4 µg/mL
CCN(CC)CC.C[C@H]1[C@H](NC(=O)/C(=N\OCc2ccc(C(=O)N/N=C/c3cccs3)cc2)c2csc(N)n2)C(=O)N1S(=O)(=O)O (relative stereo)	2	64	64	4	8	≤ 0.03	32	2	4	1	2	2	64	64	0.06	1	> 64	> 64	1	64	MIC (Escherichia coli [1]): 2 µg/mL; Selectivity ratio (Escherichia coli [15]): >16; MIC (Escherichia coli [2]): ≤ 0.06 µg/mL; MIC (Escherichia coli [23]): 4 µg/mL
CCN(CC)CC.Cc1ccc(O)c(/C=N/NC(=O)c2ccc(CO/N=C(\C(=O)N[C@@H]3C(=O)N(S(=O)(=O)O)[C@H]3C)c3csc(N)n3)cc2)c1 (relative stereo)	8	32	32	0.25	32	0.06	32	2	2	8	8	8	64	64	1	4	> 64	> 64	0.12	64	MIC (Escherichia coli [23]): 8 µg/mL
